Source: patent publication US20230036854A1, “HETEROCYCLIC SPIRO-COMPOUNDS AS AM2 RECEPTOR INHIBITORS” (THE UNIVERSITY OF SHEFFIELD, priority 2018, published 2023)

These compounds were tested against T1, AM2 receptor (1321N1 cells transfected with CALCRL+RAMP3) (Homo sapiens, UniProt O60896+Q16602) (assay: AM2 receptor inhibition, LANCE cAMP agonist-antagonist competition assay). Conditions: inhibition of AM induced cAMP activation, read-out: AM2 D2 protocol: pIC50 (converted).
T1 construct: host or cells: 1321N1 cells
Assay type: cell-based
Method: Compounds were assessed for their ability to inhibit ligand-induced elevations of cAMP, using the Perkin Elmer LANCE cAMP assay using commercially-available cells expressing a specific receptor of interest using the following general procedure:
Compounds were prepared in dimethyl sulfoxide (DMSO—99.9% pure) (Sigma Aldrich, Cat #: D4540) added to powder stocks to produce a 20 mM solution (100% DMSO) that was sonicated at 37° C. for 10 minutes to fully dissolve the compounds. The 20 mM stocks were diluted further in DMSO to produce a 2 mM solution that was sonicated at 37° C. for 10 minutes. 2 mM stocks were dissolved in assay/stimulation buffer to produce a 400 μM solution that was sonicated at 37° C. for 10 minutes for all cAMP assays. All stocks were stored at −20° C. Then serial dilution (Dilution factor: 10) was performed to achieve the desire experimental concentrations.
Competition assays were performed according to the manufactures instructions using LANCE® TR-FRET cAMP assay kit (Perkin Elmer, Cat #: AD0264). Serial dilutions (3 μl/well) of the molecules were plated in a 384-well OptiPlate (Perkin Elmer, Cat #: 6007299) in duplicates. Appropriate controls (100% stimulation: Forskolin and 0% stimulation: Vehicle control) (6 μl/well) were included in each plate for data normalization. Following the compound addition, 6 μl of G-protein coupled receptor overexpressing cells/Alexa Fluor antibody solution (1:100 dilution) was added in each well at a desired density of 2500cells/well. The overexpressing cell lines were purchased from DiscoveRx, Birmingham, UK. After spinning the plate at 1000 rpm for 1 minute and vortexing briefly, the cells were pre-incubated with the compounds for 30 minutes at room temperature (covered). Then 3 μl of the equivalent peptide ligand (EC50 dose) was added to all the wells except vehicle and forskolin controls. The plate were then spun down at 1000 rpm for 1 minute and once finished they were vortexed briefly and covered. Cells were stimulated in the presence of the ligands for 15 minutes at room temperature. After stimulation 12 μl of detection mix (Europium-Chelate streptavidin/biotinylated cAMP tracer solution) was added to all wells and incubated for 60 minutes at room temperature. The plate was then read on the Enspire multimode Plate reader (Perkin Elmer), at; 320/340 nm excitation and 615/665 nm emission was recorded.
Assay/Stimulation Buffer (30 mL)—pH 7.4 • 28 mL Hank's Balanced salt solution (+MgCl2, +CaCl2)—(Thermo Fisher Cat #:14170112) • 150 μl HEPES (1M)—(Thermo Fisher Cat #:15630080) • 400 μl Stabilizer (DTPA) Purified BSA (7.5%)—(Perkin Elmer, Cat #: CR84-100)
The ability of a compound to inhibit the AM induced cAMP activation in AM2 receptor-expressing cells (1321N1 cells transfected with CALCRL+RAMP3, sourced from DiscoverX catalogue number 95-0169C6) was assessed using the protocol above.

T1 sequence (Q16602 23-461): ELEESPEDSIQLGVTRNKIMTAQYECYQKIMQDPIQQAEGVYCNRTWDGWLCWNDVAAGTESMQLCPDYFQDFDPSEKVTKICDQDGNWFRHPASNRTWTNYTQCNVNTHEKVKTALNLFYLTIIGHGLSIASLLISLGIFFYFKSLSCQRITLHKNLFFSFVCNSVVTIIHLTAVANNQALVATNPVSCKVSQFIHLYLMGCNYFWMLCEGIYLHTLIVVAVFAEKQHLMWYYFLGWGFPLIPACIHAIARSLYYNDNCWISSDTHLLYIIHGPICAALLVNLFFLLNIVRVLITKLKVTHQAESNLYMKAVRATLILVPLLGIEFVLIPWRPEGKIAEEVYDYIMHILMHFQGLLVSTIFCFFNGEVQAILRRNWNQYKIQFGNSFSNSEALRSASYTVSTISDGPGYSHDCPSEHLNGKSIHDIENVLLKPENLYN
T1 sequence (O60896 24-148): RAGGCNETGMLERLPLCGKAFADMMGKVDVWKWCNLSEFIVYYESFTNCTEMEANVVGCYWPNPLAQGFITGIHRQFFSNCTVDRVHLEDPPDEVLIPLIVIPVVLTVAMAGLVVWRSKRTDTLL

SMILES | IC50
CNCc1ccccc1CN(CC(=O)Nc1ccc2c(c1)C[C@@]1(C2)C(=O)Nc2ncccc21)C(=O)C1(C)CCN(C(=O)c2ncccn2)CC1 [Example 18, (R)-4-Methyl-N-(2-((methylamino)methyl)benzyl)-N-(2-oxo-2-((2′-oxo-1,1′,2′,3-tetrahydrospiro[indene-2,3′-pyrrolo[2,3-b]pyridin]-5-yl)amino)ethyl)-1-(pyrimidine-2-carbonyl)piperidine-4-carboxamide] | 7.41 nM
CNCc1ccccc1CN(CC(=O)Nc1ccc2c(c1)C[C@@]1(C2)C(=O)Nc2ncccc21)C(=O)C1(C)CCN(C(=O)c2cnccn2)CC1 [Example 19, (R)-4-Methyl-N-(2-((methylamino)methyl)benzyl)-N-(2-oxo-2-((2′-oxo-1,1′,2′,3-tetrahydrospiro[indene-2,3′-pyrrolo[2,3-b]pyridin]-5-yl)amino)ethyl)-1-(pyrazine-2-carbonyl)piperidine-4-carboxamide] | 4.47 nM
CNCc1ccccc1CN(CC(=O)Nc1ccc2c(c1)C[C@@]1(C2)C(=O)Nc2ncccc21)C(=O)C1(C)CCN(C(=O)c2ccncn2)CC1 [Example 24, (R)-4-Methyl-N-(2-((methylamino)methyl)benzyl)-N-(2-oxo-2-((2′-oxo-1,1′,2′,3-tetrahydrospiro[indene-2,3′-pyrrolo[2,3-b]pyridin]-5-yl)amino)ethyl)-1-(pyrimidine-4-carbonyl) piperidine-4-carboxamide] | 2.95 nM
CNCc1ccccc1CN(CC(=O)Nc1ccc2c(c1)C[C@@]1(C2)C(=O)Nc2ncccc21)C(=O)C1(C)CCN(C(=O)c2cccnn2)CC1 [Example 26, (R)-4-Methyl-N-(2-((methylamino)methyl)benzyl)-N-(2-oxo-2-((2′-oxo-1,1′,2′,3-tetrahydrospiro[indene-2,3′-pyrrolo[2,3-b]pyridin]-5-yl)amino)ethyl)-1-(pyridazine-3-carbonyl) piperidine-4-carboxamide] | 4.57 nM
CNCc1ccccc1CN(CC(=O)Nc1ccc2c(c1)C[C@@]1(C2)C(=O)Nc2ncccc21)C(=O)C1(C)CCN(C(=O)c2ccc(N)cn2)CC1 [Example 29, (R)-1-(5-Aminopicolinoyl)-4-methyl-N-(2-((methylamino)methyl)benzyl)-N-(2-oxo-2-((2′-oxo-1,1′,2′,3-tetrahydrospiro[indene-2,3′-pyrrolo[2,3-b]pyridin]-5-yl)amino)ethyl)piperidine-4-carboxamide] | 17.8 nM
CNCc1ccccc1CN(CC(=O)Nc1ccc2c(c1)CC1(C2)C(=O)Nc2ncccc21)C(=O)C1(C)CCN(C(=O)CN2CCNCC2)CC1 (stereo not drawn) [Example 30, 4-Methyl-N-(2-((methylamino)methyl)benzyl)-N-(2-oxo-2-((2′-oxo-1,1′,2′,3-tetrahydrospiro[indene-2,3′-pyrrolo[2,3-b]pyridin]-5-yl)amino)ethyl)-1-(2-(piperazin-1-yl)acetyl)piperidine-4-carboxamide] | 0.589 nM
CNCc1ccccc1CN(CC(=O)Nc1ccc2c(c1)C[C@@]1(C2)C(=O)Nc2ncccc21)C(=O)C1(C)CCN(C(=O)CN2CCN(C(C)=O)CC2)CC1 [Example 32, (R)-1-(2-(4-Acetylpiperazin-1-yl)acetyl)-4-methyl-N-(2-((methylamino)methyl)benzyl)-N-(2-oxo-2-((2′-oxo-1,1′,2′,3-tetrahydrospiro[indene-2,3′-pyrrolo[2,3-b]pyridin]-5-yl)amino)ethyl)piperidine-4-carboxamide] | 2.34 nM
CNCc1ccccc1CN(CC(=O)Nc1ccc2c(c1)C[C@@]1(C2)C(=O)Nc2ncccc21)C(=O)C1(C)CCN(C(=O)c2cccc(C(=O)O)c2)CC1 [Example 33, (R)-3-(4-Methyl-4-((2-((methylamino)methyl)benzyl)(2-oxo-2-((2′-oxo-1,1′,2′,3-tetrahydrospiro[indene-2,3′-pyrrolo[2,3-b]pyridin]-5-yl)amino)ethyl)carbamoyl)piperidine-1-carbonyl)benzoic Acid] | 15.1 nM
CNCc1ccccc1CN(CC(=O)Nc1ccc2c(c1)C[C@@]1(C2)C(=O)Nc2ncccc21)C(=O)C1(C)CCN(C(=O)c2ccccc2C(=O)O)CC1 [Example 34, (R)-2-(4-Methyl-4-((2-((methylamino)methyl)benzyl)(2-oxo-2-((2′-oxo-1,1′,2′,3-tetrahydrospiro[indene-2,3′-pyrrolo[2,3-b]pyridin]-5-yl)amino)ethyl)carbamoyl)piperidine-1-carbonyl)benzoic Acid] | 70.8 nM

More lines, now with the values ahead:

IC50 | SMILES
8.32 nM | CNCc1ccccc1CN(CC(=O)Nc1ccc2c(c1)C[C@@]1(C2)C(=O)Nc2ncccc21)C(=O)C1(C)CCN(C(=O)C(F)F)CC1 [Example 17, (R)-1-(2,2-Difluoroacetyl)-4-methyl-N-(2-((methylamino)methyl)benzyl)-N-(2-oxo-2-((2′-oxo-1,1′,2′,3-tetrahydrospiro[indene-2,3′-pyrrolo[2,3-b]pyridin]-5-yl)amino)ethyl)piperidine-4-carboxamide]
4.27 nM | CNCc1ccccc1CN(CC(=O)Nc1ccc2c(c1)CC1(C2)C(=O)Nc2ncccc21)C(=O)C1(C)CCN(C(=O)C2CC2)CC1 (stereo not drawn) [Example 20, 1-(Cyclopropanecarbonyl)-4-methyl-N-(2-((methylamino)methyl)benzyl)-N-(2-oxo-2-((2′-oxo-1,1′,2′,3-tetrahydrospiro[indene-2,3′-pyrrolo[2,3-b]pyridin]-5-yl)amino)ethyl)piperidine-4-carboxamide]
1.51 nM | CNCc1ccccc1CN(CC(=O)Nc1ccc2c(c1)CC1(C2)C(=O)Nc2ncccc21)C(=O)C1(C)CCN(C(=O)COC)CC1 (stereo not drawn) [Example 21, 1-(2-Methoxyacetyl)-4-methyl-N-(2-((methylamino)methyl)benzyl)-N-(2-oxo-2-((2′-oxo-1,1′,2′,3-tetrahydrospiro[indene-2,3′-pyrrolo[2,3-b]pyridin]-5-yl)amino)ethyl)piperidine-4-carboxamide]
0.631 nM | CNCc1ccccc1CN(CC(=O)Nc1ccc2c(c1)CC1(C2)C(=O)Nc2ncccc21)C(=O)C1(C)CCN(C(=O)CN)CC1 (stereo not drawn) [Example 22, 1-(2-Aminoacetyl)-4-methyl-N-(2-((methylamino)methyl)benzyl)-N-(2-oxo-2-((2′-oxo-1,1′,2′,3-tetrahydrospiro[indene-2,3′-pyrrolo[2,3-b]pyridin]-5-yl)amino)ethyl)piperidine-4-carboxamide]
1.38 nM | CNCc1ccccc1CN(CC(=O)Nc1ccc2c(c1)C[C@@]1(C2)C(=O)Nc2ncccc21)C(=O)C1(C)CCN(C(=O)C(C)NC)CC1 (stereo partly drawn) [Example 23, 4-Methyl-N-(2-((methylamino)methyl)benzyl)-1-(2-(methylamino)propanoyl)-N-(2-oxo-2-(((R)-2′-oxo-1,1′,2′,3-tetrahydrospiro[indene-2,3′-pyrrolo[2,3-b]pyridin]-5-yl)amino)ethyl)piperidine-4-carboxamide]
2.14 nM | CNCc1ccccc1CN(CC(=O)Nc1ccc2c(c1)C[C@@]1(C2)C(=O)Nc2ncccc21)C(=O)C1(C)CCN(C(=O)c2ccn[nH]2)CC1 [Example 25, (R)-4-Methyl-N-(2-((methylamino)methyl)benzyl)-N-(2-oxo-2-((2′-oxo-1,1′,2′,3-tetrahydrospiro[indene-2,3′-pyrrolo[2,3-b]pyridin]-5-yl)amino)ethyl)-1-(1H-pyrazole-5-carbonyl) piperidine-4-carboxamide]
95.5 nM | CNCc1ccccc1CN(CC(=O)Nc1ccc2c(c1)C[C@@]1(C2)C(=O)Nc2ncccc21)C(=O)C1(C)CCN(C(=O)CC2CC2)CC1 [Example 27, (R)-1-(2-Cyclopropylacetyl)-4-methyl-N-(2-((methylamino)methyl)benzyl)-N-(2-oxo-2-((2′-oxo-1,1′,2′,3-tetrahydrospiro[indene-2,3′-pyrrolo[2,3-b]pyridin]-5-yl)amino)ethyl)piperidine-4-carboxamide]
3.55 nM | CNCc1ccccc1CN(CC(=O)Nc1ccc2c(c1)C[C@@]1(C2)C(=O)Nc2ncccc21)C(=O)C1(C)CCN(C(=O)CN)CC1 [Example 28, (R)-1-(2-Aminoacetyl)-4-methyl-N-(2-((methylamino)methyl)benzyl)-N-(2-oxo-2-((2′-oxo-1,1′,2′,3-tetrahydrospiro[indene-2,3′-pyrrolo[2,3-b]pyridin]-5-yl)amino)ethyl)piperidine-4-carboxamide]
1.15 nM | CNCc1ccccc1CN(CC(=O)Nc1ccc2c(c1)CC1(C2)C(=O)Nc2ncccc21)C(=O)C1(C)CCN(C(=O)CCN(C)C)CC1 (stereo not drawn) [Example 31]
